Measured values from US5041426A, “Immune system enhancing 3-β-d-ribofuranosylthiazolo[4,5-d]pyridimine nucleosides and nucleotides” (priority 1988, dated 1991).
Where “and” joins values, the source holds several entries; their conditions need not be identical. Equal values may be shown once. Read-outs that look alike come from different tables or passages of the source.

How the values were obtained:
[1] = tested on: K562 tumor cells; assay: In vitro augmentation of human natural killer cell activity (PBMNC, 51Cr release); format: cell-based; conditions: Table 22
Procedure: The natural killer cell activity in human cells was also measured. In conducting these tests peripheral blood mononuculear cells (PBMNC) were isolated on Ficoll-Hypaque gradient, washed three times in Hanks and re-suspended in RPMI-1640 containing 10% human AB serum as described in Rosenberg, S. A.: Journal American Medical Association, 256:3117, 1986 and the above referred to reference to Djeu, et al. Peripheral blood mononuclear cells (PBMNC) from eleven different donors were treated with compound 7 as described in Djeu, et al. as well as Sharma, B., Odom, L. F.: Cancer Immunol. Immunother. 7.93, 1979, and Sharma, B., Odom, L. F.: Cancer Research 44:3258, 1984.
The PBMNC cells were incubated with compound 7 at 37° C. for 20 to 68 hours in a 5% CO2 humid atmosphere and after incubation the cytotoxicity was determined against K562 tumor cells.
^a Peripheral blood mononuclear cells were treated with 0.05 - 0.4 mM
concentration of compound 7 in RPM11640 containing 10% human AB serum for
20 to 68 hours. After the treatment, effector cells were tested against
K562 target cells in 4 hour ^51 Cr release assay as described in
Sharma et al. above. The data shown here represent the maximum response.
K562 target cells in 4 hour ^51 Cr release assay as previously
described above in Sharma et al. The data represent the maximum response.
Other Nucleosides and Nucleotides of the invention were tested for their activity in human natural killer cells […] as per example 33 above.

[2] = tested on: YAC-1 cells; assay: In vitro potentiation of murine natural killer cell activity (mouse spleen cells, 51Cr release); format: cell-based; conditions: Table 21; 0.5 mM
[3] = tested on: YAC-1 cells; assay: as above; format: cell-based
Procedure: After incubation the cytotoxicity of the treated and untreated cells was determined against YAC-1 cells.
^a Spleen cells from mice were treated with 0.05 mM concentration of
amino acids and 5 × 10^-5 M Mercaptoethanol. The effector cells
were then tested for their cytotoxic activity against YAC1 target cells i
4 hr ^51 Cr release assay.
^a Spleen cells from mice were incubated in the absence and presence
of various compounds. After incubation, cells were suspended in complete
medium and then their cytotoxic activity was determined against YAC1
target cells as described in the text

[4] = tested on: San Angelo Virus; format: in vivo, mouse; conditions: 200 mg/kg/day; half-daily doses twice a day for 7 days; Time (21 days)
[5] = tested on: San Angelo Virus; format: in vivo, mouse; conditions: saline at -24 h, of mice that died
[6] = tested on: Banzi Virus; format: in vivo, mouse; conditions: placebo at -24 h, of mice that died
[7] = tested on: Influenza B Virus; assay: Antiviral activity against Influenza B virus infection in mice; format: in vivo, mouse
Procedure: Compound 7 was tested therapeutically against Influenza B Virus Infection in Mice. In addition to a saline control Ribavirin, a known antiviral, was utilized for test purposes.
hours previrus inoculation.
^c p < .001 twotailed ttest.

O=c1[nH]c(=O)c2sc(=O)n([C@@H]3O[C@H](CO)[C@@H](O)[C@H]3O)c2[nH]1 [Compound 8, 3-β-D-Ribofuranosylthiazolo[4,5-d]pyrimidine-2,5,7(4H,6H)-trione]
% Natural Killer Cell Cytotoxicity ([1]; 0.2 mM): 5%

O=C(OC[C@H]1O[C@@H](n2c(=O)sc3c(=O)[nH]cnc32)[C@H](OC(=O)c2ccccc2)[C@@H]1OC(=O)c1ccccc1)c1ccccc1 [Compound 9, 3-(2,3,5-Tri-O-benzoyl-β-D-Ribofuranosyl)thiazolo[4,5-d] pyrimidine-2,7(6H)-dione]
% Natural Killer Cell Cytotoxicity [2]: 13% and 6.5%
% Natural Killer Cell Cytotoxicity ([3]; Table 21, 0.05 mM): 3% and 2% and 0.31%
% Natural Killer Cell Cytotoxicity ([1]; 0.05 mM): 6%
% Natural Killer Cell Cytotoxicity ([1]; 0.2 mM): 43%

Nc1nc2c(sc(=O)n2[C@@H]2O[C@@H]3COP(=O)(O)O[C@H]3[C@H]2O)c(=O)[nH]1 [Compound 12]
% Natural Killer Cell Cytotoxicity ([1]; 0.2 mM): 43%
% Natural Killer Cell Cytotoxicity ([1]; 0.4 mM, Monophosphate Ammonium Salt): 39% and 22%

Nc1nc2c(sc(=S)n2[C@@H]2O[C@H](CO)[C@@H](O)[C@H]2O)c(=O)[nH]1 [Compound 16, 5-Amino-2-thioxo-3-β -D-ribofuranosylthiazolo[4,5-d]pyrimidin-7(6H)-one]
% Natural Killer Cell Cytotoxicity [2]: 38%

Nc1nc2c(sc(=O)n2[C@@H]2O[C@H](CO)[C@@H](O)[C@H]2O)c(=S)[nH]1 [Compound 19, 5-Amino-7(6H)-thioxo-3-β-D-ribofuranoxylthiazolo[4,5-d]pyrimidin-2-one]
% Natural Killer Cell Cytotoxicity ([1]; 0.2 mM): 7%

NC(=O)c1ncn([C@@H]2O[C@H](CO)[C@@H](O)[C@H]2O)n1 [Ribavirin]
Mean Survival Time [4]: 12.3 ± 2.9 days
Mean Survival Time ([5]; Ribavirin 25 mg/kg/day days 0-6): 8.1 ± 0.7 days
Mean Survival Time ([5]; Ribavirin 50 mg/kg/day days 0-6): 9.0 ± 1.2 days
Mean Survival Time ([6]; Ribavirin 100 mg/kg days 0-6): 8.5 ± 1.0 days
Mean Survival Time ([6]; Ribavirin 200 mg/kg days 0-6): 9.1 ± 0.8 days
Mean Survival Time ([7]; 100 mg/kg/day, half-daily doses twice a day for 7 days): 8.0 ± 0.0 days
efficacy against influenza B (in words) ([7]; Table 12): significant antiviral activity

Poly I:C [reference compound]
% Natural Killer Cell Cytotoxicity ([3]; C57BL/6J spleen cells, treatment 0 h, compound 7 at 0.05 mM): 18%
% Natural Killer Cell Cytotoxicity ([3]; C57BL/6J spleen cells, treatment 0 h, compound 7 at 0.05 mM, listed as Poly I:): 22%
% Natural Killer Cell Cytotoxicity ([3]; C57BL/6J spleen cells, treatment 20 h, compound 7 at 0.05 mM): 13%
% Natural Killer Cell Cytotoxicity ([3]; C57BL/6J spleen cells, treatment 20 h, compound 7 at 0.05 mM, listed as Poly I:): 6%
% Natural Killer Cell Cytotoxicity ([3]; C57BL/6J spleen cells, treatment 44 h, compound 7 at 0.05 mM): 14%
% Natural Killer Cell Cytotoxicity ([3]; C57BL/6J spleen cells, treatment 44 h, compound 7 at 0.05 mM, listed as Poly I:): 13%
% Natural Killer Cell Cytotoxicity ([3]; CBA/CaJ spleen cells, treatment 0 h, compound 7 at 0.05 mM): 14.5% and 22%
% Natural Killer Cell Cytotoxicity ([3]; CBA/CaJ spleen cells, treatment 20 h, compound 7 at 0.05 mM): 18% and 31%
% Natural Killer Cell Cytotoxicity ([3]; CBA/CaJ spleen cells, treatment 44 h, compound 7 at 0.05 mM): 19% and 9%
